Source: patent US10765681B2 (Academia Sinica, priority 2016, dated 2020)

Experiments:
[1] = system: MDA-MB231 breast cancer cells; experiment: MTT assay, growth of MDA-MB231 breast cancer cells; format: cell-based; conditions: Homo sapiens, MDA-MB-231, MDA-MB231 triple-negative breast cancer cell line, Table 3
Experimental: The inhibitory effect of the exemplary compounds against MDA-MB231 breast cancer cell and H1975 lung cancer cell was evaluated. The cytotoxic activity of test compounds was examined by performing a MTT assay.

H1975 lung cancer cells = experiment: MTT assay, growth of H1975 lung cancer cells; format: cell-based; conditions: Homo sapiens, NCI-H1975; H1975 lung cancer cell line; MTT; Table 3; read-out: IC50 H1975

IC50 [1]	melting point	IC50 (H1975 lung cancer cells)	SMILES
16.9 ± 11.5 µM	247 to 249 °C	25.1 ± 0.4 µM	CCOc1ccc(-c2nc(C#N)c3nc(OC(=O)Oc4ccccc4)n(-c4ccccc4OC)c3n2)cc1 [Compound 17d, 6-Cyano-2-(4-ethoxyphenyl)-9-(2-methoxyphenyl)purin-8-yl phenyl carbonate]
2.8 µM	260.5 to 261.6 °C	0.3 µM	CCOc1ccc(-c2nc(C(=O)NOC)c3[nH]c(=O)n(-c4ccccc4OC)c3n2)cc1 [Compound 19b, 2-(4-Ethoxyphenyl)-9-(2-methoxyphenyl)-8-oxopurine-6-(N-methoxy)carb oxamide]
22 µM	278 to 280 °C	13 µM	CCOc1ccc(-c2nc(C#N)c3nc(OC(=O)OC(C)(C)C)n(-c4ccccc4OC)c3n2)cc1 [Compound 17b, Tert-butyl 6-cyano-2-(4-ethoxyphenyl)-9-(2-methoxyphenyl)purin-8-yl carbonate]
56 µM		42 µM	CCOc1ccc(-c2nc(C(=N)NOC)c3c(n2)n(-c2ccccc2OC)c(=O)n3C)cc1 [Compound 21b, 2-(4-Ethoxyphenyl)-9-(2-methoxyphenyl)-7-methyl-8-oxopurine-6-(N-methoxy)carboximidamide]
2.6 µM	293.2 to 294.8 °C	6.2 µM	CCOc1ccc(-c2nc(C#N)c3[nH]c(=O)n(-c4ccc([N+](=O)[O-])cc4)c3n2)cc1 [Compound 12d, 2-(4-Ethoxyphenyl)-9-(4-nitrophenyl)-8-oxopurine-6-carbonitrile]
3.9 µM	209 to 211 °C	3.1 µM	CCOc1ccc(-c2nc(C(=N)NOC(=O)Oc3ccccc3)c3[nH]c(=O)n(-c4ccccc4OC)c3n2)cc1 [Compound 22b, 2-(4-Ethoxyphenyl)-9-(2-methoxyphenyl)-8-oxopurine-6-[N-(phenoxycarbonyl)oxy]carboximidamide]
1.6 µM	215 to 217 °C	0.7 µM	CCOc1ccc(-c2nc(C#N)c3nc(Cl)n(-c4ccccc4OC)c3n2)cc1 [Compound 31a, 8-Chloro-2-(4-ethoxyphenyl)-9-(2-methoxyphenyl)purine-6-carbonitrile]
3.9 µM	246 to 248 °C	3.1 µM	CCOc1ccc(-c2nc(C(=N)NOC(=O)OCc3ccccc3)c3[nH]c(=O)n(-c4ccccc4OC)c3n2)cc1 [Compound 22a, 2-(4-Ethoxyphenyl)-9-(2-methoxyphenyl)-8-oxopurine-6-[N-(benzyloxycarbonyl)oxy]carboximidamide]
65.3 µM	273.7 to 274.5 °C	60.9 µM	CCOc1ccc(-c2nc(C(=O)NN)c3[nH]c(=O)n(-c4ccccc4OC)c3n2)cc1 [Compound 20a, 2-(4-Ethoxyphenyl)-9-(2-methoxyphenyl)-8-oxopurine-6-carbohydrazide]
11.9 µM	210 to 212 °C	14.7 µM	CCOc1ccc(-c2nc(C#N)c3nc(N(C(C)=O)C(C)=O)n(-c4ccccc4OC)c3n2)cc1 [Compound 35a, N-Acetyl-N-[6-cyano-2-(4-ethoxyphenyl)-9-(2-methoxyphenyl)purin-8-yl]acetamide]

Second part, the molecule before the results:

SMILES	IC50 [1]	melting point	IC50 (H1975 lung cancer cells)
CCOc1ccc(-c2nc(C(=N)NO)c3c(n2)n(-c2ccccc2OC)c(=O)n3C)cc1 [Compound 21a, 2-(4-Ethoxyphenyl)-9-(2-methoxyphenyl)-7-methyl-8-oxopurine-6-(N-hydroxy)carboximidamide]	87 µM	229 to 231 °C	30 µM
CCOc1ccc(-c2nc(C(=O)O)c3nc(S)n(-c4ccccc4)c3n2)cc1 [Compound 29a, 2-(4-Ethoxyphenyl)-8-mercapto-9-phenylpurine-6-carboxylic acid]	91 µM	320 °C (dec.)	43.6 µM
C=CCn1c(=O)n(-c2ccccc2OC)c2nc(-c3ccc(OCC)cc3)nc(C(=N)NOC(=O)Oc3ccccc3)c21 [Compound 23a, 7-Allyl-2-(4-ethoxyphenyl)-9-(2-methoxyphenyl)-8-oxopurine-6-[N-(phenoxycarbonyl)oxy]carboximidamide]	48.1 µM	83 to 85 °C	51.1 µM
CCOc1ccc(-c2nc(C(N)=O)c3[nH]c(=O)n(-c4ccc([N+](=O)[O-])cc4)c3n2)cc1 [Compound 5k, 2-(4-Ethoxyphenyl)-9-(4-nitrophenyl)-8-oxopurine-6-carboxamide]	26 µM	307.6 to 309 °C	7 µM
CCOc1ccc(-c2nc(C#N)c3[nH]c(=O)n(-c4ccc(C(=O)OC)cc4)c3n2)cc1 [Compound 12b, 2-(4-Ethoxyphenyl)-9-(4-methoxycarbonylphenyl)-8-oxopurine-6-carbonitrile]	3.9 µM	311.1 to 312.2 °C	9.8 µM
CCOc1ccc(-c2nc(-c3noc(C)n3)c3[nH]c(=O)n(-c4ccccc4OC)c3n2)cc1 [Compound 24a, 2-(4-Ethoxyphenyl)-9-(2-methoxyphenyl)-6-(5-methyl-1,2,4-oxadiazol-3-yl)purin-8-one]	64 µM	291 to 293 °C	17 µM
CCOc1ccc(-c2nc(C#N)c3[nH]c(=O)n(-c4cccc([N+](=O)[O-])c4)c3n2)cc1 [Compound 12e, 2-(4-Ethoxyphenyl)-9-(3-nitrophenyl)-8-oxopurine-6-carbonitrile]	3.5 µM	296.1 to 297.8 °C	4.1 µM
CCCCNC(=N)c1nc(-c2ccc(OCC)cc2)nc2c1[nH]c(=O)n2-c1ccccc1OC [Compound 13a, 2-(4-Ethoxyphenyl)-9-(2-methoxyphenyl)-8-oxopurine-6-(N-butyl)carboximidamide]	11.6 µM	375 to 377 °C	79 µM
CCOc1ccc(-c2nc(C(=N)NO)c3nc(N)n(-c4ccccc4OC)c3n2)cc1 [Compound 36a, 8-Amino-2-(4-ethoxyphenyl)-9-(2-methoxyphenyl)purine-6-(N-hydroxy)carboximidamide]	15.4 µM	245 to 247 °C	11.9 µM
CCOc1ccc(-c2nc(C(=O)NN(C)C)c3[nH]c(=O)n(-c4ccccc4OC)c3n2)cc1 [Compound 20b, 2-(4-Ethoxyphenyl)-9-(2-methoxyphenyl)-8-oxopurine-6-(N′,N′-dimethyl)carbohydrazide]	47.2 µM	279.6 to 281 °C	6.9 µM
CCOc1ccc(-c2nc(C#N)c3nc(OC(=O)OCc4ccccc4)n(-c4ccccc4OC)c3n2)cc1 [Compound 17c, Benzyl 6-cyano-2-(4-ethoxyphenyl)-9-(2-methoxyphenyl)purin-8-yl carbonate]	48.6 µM	228 to 230 °C	34 µM
